In article PMC4595804, “A strategy to discover decoy chemokine ligands with an anti-inflammatory activity” (Scientific Reports, 2015) one finds Kd and IC50 data, which are given here for 2 molecules.

The term Kd denotes the concentration at which binding is half-saturated.

Assay [1] addresses T1, CCL22 (Homo sapiens, UniProt O00626).
T1 construct: codes for the mature CCL17 or CCL22 with an N-terminal thioredoxin-hexahistidin (TRX- (His)6) tag; thioredoxin (TRX) (N, cleaved yes); (His)6 (N, cleaved yes); made in house; host or cells: E. coli BL21 (DE3)
T1 sequence (O00626 25-93): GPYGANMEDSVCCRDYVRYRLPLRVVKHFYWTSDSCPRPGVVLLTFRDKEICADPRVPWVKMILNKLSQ
The assay can be described thus: Tryptophan fluorescence assay on CCL22. Type of assay: binding. The method, then:
Fluorescence measurements were performed on a spectrofluorometer (JobinYvon/Spex) in a quartz microcuvette at 20 °C. […] The fluorescence emission spectra were corrected by subtracting the emission scan of the compounds alone and data analysis was carried out with fluorescence intensities detected at 340 nm.

Assay [2] has as its target T1, CCL22. The assay can be described thus: CCL22-induced EGFP-CCR4 receptor internalization (flow cytometry). The format is cell-based. The following applies: 100 nM CCL22, 30 min, 0.03–3 μM compound; read-out: half-maximal efficiency, reduction of CCL22-induced CCR4 internalization. The method, then:
Figure 6 (a) Selectivity of CCL17 and CCL22 neutraligands towards 10 chemokines according to the “neutraligand protocol”. […] Each column represents the mean (block) ± SD (bars) of n = 3 experiments performed in triplicate. *p < 0.05; **p < 0.01; ***p < 0.005 as compared to chemokine + DMSO. (b) Chemokine neutraligands inhibited CCR4 endocytosis induced by CCL22 or CCL17. EGFP-CCR4^+ HEK cells were incubated for 30 min with DMSO or chemokine (100 nM CCL22 or CCL17) in the presence or absence of test compounds. […] Cell surface EGFP-tagged CCR4 receptors were measured by EGFP antibody labeling and flow cytometry analysis. CCR4 internalization was expressed as a percentage of total receptor surface expression calculated using control cells incubated with DMSO (100%). Each column represents the mean (block) ± SD (bars) of n = 3 experiments performed in triplicate. *p < 0.05; **p < 0.01; ***p < 0.005 as compared to chemokine alone. (c,d) Inhibition of CCL17 and CCL22- induced CCR4^+HUT78 T cell chemotaxis by neutraligands. […] The number of migrating cells in the presence of chemokine and compounds were expressed as the corresponding percentages. Results were analyzed by fitting the experimental curves (% of migrating cells vs log compound concentration) using the Kaleidagraph software program, and the corresponding IC50 values were calculated. […]
(In general: In flow cytometry, cells or beads pass a laser one at a time.)

In assay [3] the target is T1, CCL22. The assay can be described thus: CCL22-induced CCR4+ HUT78 T cell chemotaxis (Transwell), neutraligand protocol. The following applies: 3 nM CCL22 preincubated 1 h with compound; read-out: IC50, inhibition of CCL22-induced HUT78 chemotaxis. The format is cell-based. Here is the method:
Figure 6 (a) Selectivity of CCL17 and CCL22 neutraligands towards 10 chemokines according to the “neutraligand protocol”. […] Each column represents the mean (block) ± SD (bars) of n = 3 experiments performed in triplicate. *p < 0.05; **p < 0.01; ***p < 0.005 as compared to chemokine + DMSO. (b) Chemokine neutraligands inhibited CCR4 endocytosis induced by CCL22 or CCL17. EGFP-CCR4^+ HEK cells were incubated for 30 min with DMSO or chemokine (100 nM CCL22 or CCL17) in the presence or absence of test compounds. […] Cell surface EGFP-tagged CCR4 receptors were measured by EGFP antibody labeling and flow cytometry analysis. CCR4 internalization was expressed as a percentage of total receptor surface expression calculated using control cells incubated with DMSO (100%). […] The number of migrating cells in the presence of chemokine and compounds were expressed as the corresponding percentages. Results were analyzed by fitting the experimental curves (% of migrating cells vs log compound concentration) using the Kaleidagraph software program, and the corresponding IC50 values were calculated. […]
The T- cell line, HUT78 (ATCC), was cultured in RPMI 1640 supplemented with streptomycin, penicillin and 10% FCS without phenol red. […] After a 2 h incubation at 37 °C and 5%CO2, the plates were read with an excitation wavelength of 485 nm and an emission wavelength of 535 nm. […]

The target of a further assay is T2, mouse CCL17 (Mus musculus, UniProt Q9WUZ6).
T2 construct: purchased R&D systems
T2 sequence (Q9WUZ6 24-93): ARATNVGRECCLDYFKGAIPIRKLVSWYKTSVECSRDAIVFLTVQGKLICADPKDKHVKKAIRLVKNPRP
Briefly: Calcium responses induced by mouse CCL17, neutraligand protocol, CCR4+Gqi5+ HEK cells. The format is cell-based. The following applies: 5 nM mouse CCL17 preincubated 1 h with compound; read-out: IC50, inhibition of mouse CCL17-evoked calcium signaling. The method, then:
Dye loaded cells were placed in the FlexStation 3 (Molecular Devices). Calcium mobilization was measured at 401 and 475 nm emission fluorescence after excitation at 355 nm. For the primary screening, the ligands (50μl of chemokine mixed with DMSO or test compounds) were added to the cells at 40 s, followed by digitonin addition (50μl) at 100 s to the cells. Molecules were screened at a final concentration of 2μg/ml with 5 nM CCL17 or CCL22. […] Raw fluorescence data (at 401 and 475 nm) were exported and the ratio 401/475 was calculated. The calcium response values (height of peak response over baseline) were determined. Hits were selected by comparing the response amplitude at the time of the chemokine addition ± test compound. The Z’ factor[29] was calculated according to the following equation: Z’ = 1-(3SD+ + 3SD−)/|Ave+ − Ave−|, where SD+ and Ave+ are respectively the standard deviation and the mean value of the positive controls (chemokine + DMSO), while SD− and Ave− are respectively the standard deviation and the mean value of the negative controls (HEPES-BSA (0.1%) mixed with DMSO, or cells mixed with C-021). Hit molecules were confirmed by performing concentration-response curves and their half maximal inhibitory concentration (IC50) values were calculated using the Kaleidagraph software. […]
neutraligand. Human (○) or mouse (●) CCL17 (5nM) was preincubated with increasing […]

Like-named read-outs stand apart in the source and are kept apart here. A value given as a limit tells only on which side of the number the result lay.

Regarding `O=C(OCC(O)CO)c1ccccc1O` (centres unmarked) [GPN136, 2,3-dihydroxypropyl 2-hydroxybenzoate], the Kd on CCL22 [1] (1.5 μM CCL22, tryptophan fluorescence at 340 nm, estimated, read-out: KD, high-affinity binding site class, on CCL22) is under 0.05 µM; on CCL22 [1] ([…] CCL22, tryptophan fluorescence at 340 nm, read-out: KD, low-affinity binding site class, on CCL22) it was 53 µM. Moreover, the IC50 on CCL22 [2] was about 0.1 µM; on CCL22 [3], 0.00034 ± 0.0001 µM.

As to `CC(C)=CCn1cnc2c1c(=O)n(C)c(=O)n2C` [GPN279, 1,3-dimethyl-7-(3-methylbut-2-enyl)-1H-purine-2,6(3H, 7H)-dione], the IC50 at mouse CCL17 is 5.2 ± 0.9 µM.
